Reference: PubChem BioAssay (NCI)
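Each compound was tested at five concentrations against cells in 96-well plates for 48 hours. GI50 marks 50% less growth. Definition used: TGI = concentration required for complete inhibition of growth.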

Columns and labels:
Test in all cases: NCI-60 cell line screen, 48 h
CCRF-CEM leukemia = tested on: CCRF-CEM leukemia
DU-145 prostate = tested on: DU-145 prostate
M14 melanoma = tested on: M14 melanoma
MOLT-4 leukemia = tested on: MOLT-4 leukemia
NCI-H23 lung = tested on: NCI-H23 lung
NCI-H522 lung = tested on: NCI-H522 lung
OVCAR-3 ovarian = tested on: OVCAR-3 ovarian
SK-MEL-5 melanoma = tested on: SK-MEL-5 melanoma
SK-OV-3 ovarian = tested on: SK-OV-3 ovarian
SNB-75 CNS = tested on: SNB-75 CNS

SMILES: Clc1ccc(C2CC(c3cccc(Nc4ccncc4)c3)=NN2c2cc(Cl)cc(Cl)c2)cc1 (stereo not given)
- GI50 (CCRF-CEM leukemia): 3.52 µM
- TGI (CCRF-CEM leukemia): > 100 µM
- GI50 (DU-145 prostate): 1.85 µM
- TGI (DU-145 prostate): 3.39 µM
- GI50 (M14 melanoma): 1.81 µM
- TGI (M14 melanoma): 3.9 µM
- GI50 (MOLT-4 leukemia): 2.17 µM
- TGI (MOLT-4 leukemia): 5.01 µM
- GI50 (NCI-H23 lung): 1.71 µM
- TGI (NCI-H23 lung): 3.34 µM
- GI50 (NCI-H522 lung): 1.86 µM
- TGI (NCI-H522 lung): 3.79 µM
- GI50 (OVCAR-3 ovarian): 1.84 µM
- TGI (OVCAR-3 ovarian): 3.41 µM
- GI50 (SK-MEL-5 melanoma): 1.83 µM
- TGI (SK-MEL-5 melanoma): 3.38 µM
- GI50 (SK-OV-3 ovarian): 1.89 µM
- TGI (SK-OV-3 ovarian): 3.83 µM
- GI50 (SNB-75 CNS): 1.4 µM
- TGI (SNB-75 CNS): 2.93 µM
